Data taken from publication PMC11125181, “New Inhibitors of Bcr-Abl Based on 2,6,9-Trisubstituted Purine Scaffold Elicit Cytotoxicity in Chronic Myeloid Leukemia-Derived Cell Lines Sensitive and Resistant to TKIs” (Pharmaceutics, 2024).
Read-outs that look alike come from different tables or passages of the source.

Assays:
[1] = tested on: KCL22 B8 cell line containing Bcr-Abl^T315I; test: Cell cycle flow cytometry, KCL22 B8; type: cell-based, human; conditions: 24 h treatment
Description: The cell lines were seeded into 96-well plates and then treated with compounds for 24 h. After treatment, the cells were directly stained by adding 5 × staining solution (17 mM trisodium citrate dihydrate, 0.5% IGEPAL® CA-630, 7.5 mM spermine tetrahydrochloride, 2.5 mM Tris; pH 7.6 containing 50 μg/mL propidium iodide). […] Cell cycle distribution was analyzed using ModFit LT 5.0.9 (Verity Software House, Augusta, ME, USA).

BV173 = test: Cytotoxicity assay (resazurin) on BV173; type: cell-based; conditions: Homo sapiens, BV-173, 72 h
Description: (§1) Human cell lines KCL22 and BV173 were obtained from the German Collection of Microorganisms and Cell Cultures, K562 and HEK-293T from the European Collection of Authenticated Cell Cultures. KBM5 cell line was kindly gifted by Vladimír Divoký. Development of KCL22 subclones B8 (T315I, 100%), F4 (E255K, 100%), and B10 (Y253H, 50%) was reported previously. All cell lines were cultivated in humidified incubator at 37 °C and in 5% CO2 according to the provider’s instructions in appropriate media supplemented with 10% fetal bovine serum, penicillin (100 IU/mL), streptomycin (100 µg/mL), and glutamine (4 mM).
(§2) Cytotoxicity was determined using resazurin, an indicator dye to measure oxidation-reduction reactions occurring in the mitochondria of live cells. The cells were seeded into 96-well plates and treated with compounds for 72 h (six different doses of each, in triplicate). After treatment, resazurin (Merck, Darmstadt, Germany) solution was added for 4 h, and the fluorescence of formed resorufin corresponding to live cell quantity was measured at 544 nm/590 nm (excitation/emission) using a Fluoroskan Ascent microplate reader (Labsystems, Vantaa, Finland).

HEK-293T = test: Cytotoxicity assay (resazurin) on non-neoplastic HEK-293T; type: cell-based; conditions: Homo sapiens, 72 h, non-neoplastic cells
Description: as §1, §2

KCL22 F4 (E255K) = test: Cell cycle flow cytometry, KCL22 F4; type: cell-based, human; conditions: 24 h treatment
Description: (§3) The cell lines were seeded into 96-well plates and then treated with compounds for 24 h. After treatment, the cells were directly stained by adding 5 × staining solution (17 mM trisodium citrate dihydrate, 0.5% IGEPAL® CA-630, 7.5 mM spermine tetrahydrochloride, 2.5 mM Tris; pH 7.6 containing 50 μg/mL propidium iodide). DNA content was measured by flow cytometry using a 488 nm laser (BD FACS Verse with software BD FACSuite™, version 1.0.6.). Cell cycle distribution was analyzed using ModFit LT 5.0.9 (Verity Software House, Augusta, ME, USA).

[2] = tested on: STAT5 phosphorylation, PARP cleavage in KCL22 B10; test: Immunoblotting of Bcr-Abl pathway proteins, KCL22 B10; type: cell-based, human; conditions: immunoblot, 24 h treatment
Description: (§4) Cell lysates were separated on SDS–polyacrylamide gels and electroblotted onto nitrocellulose membranes. After blocking, overnight incubation with specific primary antibodies was performed, followed by wash and incubation with peroxidase-conjugated secondary antibodies (Cell Signalling). Peroxidase activity was detected with SuperSignal West Pico reagents (Thermo Scientific, Waltham, MA, USA) using a CCD camera LAS-4000 (Fujifilm, Tokyo, Japan). The following specific primary antibodies were used: Cell Signalling: anti-STAT5 (#94205), anti-p-STAT5 Y694 (#9351), anti-Crkl (#3182), anti-p-Crkl Y207 (#3181), anti-cyclin A (#4656), anti-p-Bcr Y177 (#3901), and anti-PARP (#9532); Santa Cruz Biotechnology: anti-β-actin (#sc-47778).

K562 = test: Cytotoxicity assay (resazurin) on K562; type: cell-based; conditions: Homo sapiens, 72 h
Description: as §1, §2

KCL22 B10 (Y253H) = test: Cell cycle flow cytometry, KCL22 B10; type: cell-based, human; conditions: 24 h treatment
Description: as §3

KCL22 F4 (E255K, 100%) = test: Cytotoxicity assay (resazurin) on KCL22 subclone F4; type: cell-based; conditions: Homo sapiens, KCL-22, read-out: GI50 KCL22 F4 E255K (100%), 72 h
Description: as §1, §2

[3] = tested on: STAT5 phosphorylation, PARP cleavage in KCL22 F4; test: Immunoblotting of Bcr-Abl pathway proteins, KCL22 F4; type: cell-based, human; conditions: immunoblot, 24 h treatment
Description: as §4

KCL22 B8 (T315I, 100%) = test: Cytotoxicity assay (resazurin) on KCL22 subclone B8; type: cell-based; conditions: Homo sapiens, KCL-22, read-out: GI50 KCL22 B8 T315I (100%), 72 h
Description: as §1, §2

KCL22 WT cells = test: Cell cycle flow cytometry, KCL22 WT; type: cell-based, human; conditions: 24 h treatment, increasing concentration up to 5 µM
Description: as §3

[4] = tested on: KCL22 cells containing Bcr-Abl^WT; test: Cytotoxicity assay (resazurin) on KCL22 WT; type: cell-based, human; conditions: Homo sapiens, KCL-22, 72 h, read-out: GI50 KCL22 WT
KBM5 = test: Cytotoxicity assay (resazurin) on KBM5; type: cell-based; conditions: Homo sapiens, KBM5; 72 h, resazurin assay; read-out: GI50 KBM5
KCL22 B10 (Y253H, 50%) = test: Cytotoxicity assay (resazurin) on KCL22 subclone B10; type: cell-based; conditions: Homo sapiens, KCL-22, read-out: GI50 KCL22 B10 Y253H (50%), 72 h
Description: as §1, §2

recombinant Abl1 kinase [5] = biological target: T1, recombinant Abl1 kinase (Homo sapiens, UniProt P00519); test: Recombinant Abl1 kinase inhibition assay ([γ-33P]ATP, peptide substrate); type: biochemical
T1 construct: made in house
T1 sequence (P00519 whole entry): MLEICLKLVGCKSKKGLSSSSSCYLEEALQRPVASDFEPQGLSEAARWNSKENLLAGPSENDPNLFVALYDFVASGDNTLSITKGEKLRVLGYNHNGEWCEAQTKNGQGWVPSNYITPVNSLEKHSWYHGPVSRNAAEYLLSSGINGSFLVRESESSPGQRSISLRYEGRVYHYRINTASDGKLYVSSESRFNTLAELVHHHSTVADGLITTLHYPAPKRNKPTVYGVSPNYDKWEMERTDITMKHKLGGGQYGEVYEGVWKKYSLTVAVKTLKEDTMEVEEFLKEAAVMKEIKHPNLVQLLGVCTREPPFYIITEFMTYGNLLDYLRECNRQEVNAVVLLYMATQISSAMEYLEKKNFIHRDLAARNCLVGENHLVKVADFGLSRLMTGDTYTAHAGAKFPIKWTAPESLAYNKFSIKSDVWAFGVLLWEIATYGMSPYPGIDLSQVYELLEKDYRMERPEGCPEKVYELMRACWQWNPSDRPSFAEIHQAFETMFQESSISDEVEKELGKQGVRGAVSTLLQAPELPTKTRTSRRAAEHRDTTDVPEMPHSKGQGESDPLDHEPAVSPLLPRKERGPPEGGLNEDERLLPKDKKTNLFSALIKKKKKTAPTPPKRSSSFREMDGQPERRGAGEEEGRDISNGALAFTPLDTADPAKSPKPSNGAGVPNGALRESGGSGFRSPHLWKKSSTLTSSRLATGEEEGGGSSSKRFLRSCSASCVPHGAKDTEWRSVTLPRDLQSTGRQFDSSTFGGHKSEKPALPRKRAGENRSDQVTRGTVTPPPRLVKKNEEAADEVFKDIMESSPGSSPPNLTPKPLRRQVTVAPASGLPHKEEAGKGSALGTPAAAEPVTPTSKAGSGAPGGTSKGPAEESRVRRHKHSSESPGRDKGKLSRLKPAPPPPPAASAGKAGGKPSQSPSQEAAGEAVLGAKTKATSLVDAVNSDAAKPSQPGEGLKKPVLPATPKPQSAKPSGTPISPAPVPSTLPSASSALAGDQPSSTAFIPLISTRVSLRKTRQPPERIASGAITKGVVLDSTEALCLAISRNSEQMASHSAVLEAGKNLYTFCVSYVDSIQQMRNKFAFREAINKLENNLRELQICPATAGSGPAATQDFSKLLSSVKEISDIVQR
Description: The reactions were stopped by adding 5 µL of 3% aq. H3PO4. […] H3PO4, and air-dried.

[6] = tested on: p-Crkl, p-STAT5, PARP, cyclin A in WT KCL22 cell line; test: Immunoblotting of Bcr-Abl pathway proteins, WT KCL22; type: cell-based, human; conditions: immunoblot, 24 h treatment
Description: as §4

[7] = tested on: KBM5, BV173, K562 (Bcr-Abl rearranged cell lines); test: Cytotoxicity across cell lines with Bcr-Abl rearrangement; type: cell-based; conditions: Homo sapiens, read-out: GI50 in Bcr-Abl rearranged cell lines (span over cell lines)
Description: as §1, §2

[8] = tested on: KCL22 models (WT, B8, F4, B10); test: Cytotoxicity across all KCL22 models; type: cell-based; conditions: Homo sapiens, KCL-22, read-out: GI50 in all KCL22 models (span over models)
Description: as §1, §2

recombinant Abl1 kinase [9] = biological target: T1, recombinant Abl1 kinase; conditions: Figure 2A, compounds with longer N-9 substituents; read-out: IC50 Bcr-Abl; cited from earlier work
[10] = from the IC50 of Table S1, read-out: pIC50 (Table S1) (converted)
[11] = recombinant Abl1, 1 µM ATP, at least three independent experiments, read-out: IC50 Abl

| IC50 (recombinant Abl1 kinase [5]; [10]) [µM] | IC50 (recombinant Abl1 kinase [5]; [11]) [µM] | Structure (SMILES) | Effect on cell cycle distribution, KCL22 B8 (T315I) [1] | GI50 (BV173) [µM] | GI50 (HEK-293T) [µM] | GI50 (K562) [µM] | GI50 (KCL22 F4 (E255K, 100%)) [µM] | GI50 (KCL22 B8 (T315I, 100%)) [µM] | GI50 [4] [µM] | GI50 (KBM5) [µM] | GI50 (KCL22 B10 (Y253H, 50%)) [µM] | also measured |
| --- | --- | --- | --- | --- | --- | --- | --- | --- | --- | --- | --- | --- |
| 0.014 | 0.015 ± 0.01 | OCCN1CCN(c2ccc(Nc3nc(Nc4cccc(F)c4)c4ncn(CC5CC5)c4n3)cc2)CC1 [Compound 11b, 2-(4-(4-((9-(Cyclopropylmethyl)-6-((3-fluorophenyl)amino)-9H-purin-2-yl)amino)phenyl)piperazin-1-yl)ethan-1-ol] | resistant | 1.5 ± 0.2 | 5.5 ± 0.6 | 0.7 ± 0.2 | 4.1 ± 0.1 | 11.5 ± 1.1 | 2 ± 0.4 | 1.3 ± 0.1 | 2.6 ± 0.2 | Effect on cell cycle distribution, KCL22 F4 (KCL22 F4 (E255K)): arrested F4 and B10 mutant models in G1 phase; Effect on Bcr-Abl downstream proteins, KCL22 B10 [2]: significantly pronounced in both mutant cell lines; Effect on cell cycle distribution, KCL22 B10 (KCL22 B10 (Y253H)): arrested F4 and B10 mutant models in G1 phase; Effect on Bcr-Abl downstream proteins, KCL22 F4 [3]: significantly pronounced in both mutant cell lines; Effect on cell cycle distribution, KCL22 WT (KCL22 WT cells): significant block of WT cells in G1 phase; Effect on Bcr-Abl downstream proteins, WT KCL22 [6]: downregulated the levels of p-Crkl and p-STAT5; GI50 [7]: 0.7 to 1.3 µM |
| 0.13 | 0.131 ± 0.071 | CC(C)CCn1cnc2c(Nc3cccc(F)c3)nc(Nc3ccc(N4CCN(CCO)CC4)cc3)nc21 [Compound 11e, 2-(4-(4-((6-((3-Fluorophenyl)amino)-9-isopentyl-9H-purin-2-yl)amino)phenyl)piperazin-1-yl)ethan-1-ol] | resistant | 3.8 ± 0.1 | 4.7 ± 0.7 | 4.3 ± 0.2 | 5.6 ± 0.5 | 6.9 ± 0.8 | 6.1 ± 0.1 | 5 ± 0.1 | 6.9 ± 0.1 | GI50 [8]: 5.6 to 6.9 µM; IC50 (recombinant Abl1 kinase [5]; as listed in Table S1, Bcr-Abl WT, read-out: IC50 (Table S1)): 0.13 µM |
|  |  | CC(C)CCn1cnc2c(Nc3ccc(F)c(F)c3)nc(Nc3ccc(N4CCN(C)CC4)cc3)nc21 [IV] |  |  |  |  |  |  |  |  |  | IC50 (recombinant Abl1 kinase [9]): 2.28 µM |
